US20090239926A1, “METHODS FOR THE TREATMENT OF PSORIASIS OR PSORIATIC ARTHRITIS USING CYCLOPROPYL-N-CARBOXAMIDE” (priority 2008, published 2009)
Several values for one entry are separate records, joined by “and”; a condition that tells them apart may be missing. Equal values may be shown once.

Columns and labels:
[1] = system: collagen-induced arthritis in male DBA/1 mice; test: Type II collagen-induced mice arthritis model; assay type: in vivo; conditions: 25 mg/kg orally once a day for 10 days
Description: Collagen-Induced Arthritis Animal Model: Type II collagen purified from the cartilage of a young calf was dissolved at 4 mg/ml in 0.1M acetic acid and emulsified with an equal volume of complete Freund's adjuvant (CFA). DBA/1 mice (8-12 weeks of age) were then immunized at two sites at the base of the tail on Day 1 with 100 μl of the emulsion.
Treatment regime and measurement of clinical score: 14 animals per test group were treated orally once a day for 10 days (Days 1-10) with vehicle (0.5% carboxymethyl-cellulose/0.25% Tween 80), or Compound A suspended in vehicle at 5 mg/kg or 25mg/kg. The experiment was terminated on Day 10. Mice were monitored daily for signs of arthritis and scored using an established clinical scoring system, where: 0=normal, 1=slight swelling and/or erythema, and 2=pronounced edematous swelling. Each limb was graded, giving a maximum score of 8 per mouse. In addition, paw-swelling was measured using calipers.
Histology: At the end of the experiment, paws from treated mice were fixed in formal saline, decalcified and embedded in wax, sectioned and stained with hematoxylin and eosin. […]

[2] = system: LPS-stimulated human whole blood TNF-α production; test: LPS-induced TNF-α production in human whole blood; assay type: cell-based
Description: LPS-induced TNF-α production in Human Whole Blood: The ability of Compound A to inhibit LPS-induced TNF-α production by human whole blood was measured as described above for the LPS-induced TNF-α assay in human PBMC, except that freshly drawn whole blood was used instead of PBMC.

[3] = system: PDE4 enzyme purified from U937 human monocytic cells; test: PDE4 inhibition; assay type: biochemical
Description: PDE4 enzyme was purified from U937 human monocytic cells by gel filtration chromatography (Muller et al. 1998, Bioorg. & Med. Chem. Lett. 1998. 8 (19):2669-74). Phosphodiesterase reactions were carried out in 50 MM Tris HCl pH 7.5, 5 mM MgCl2, 1 μM cAMP, 10 nM [^3H]-cAMP for 30 min at 30, terminated by boiling, treated with 1 mg/ml snake venom, and separated using AG-lXS ion exchange resin (BioRad).
The specificity of Compound A for PDE4 was assessed by testing at a single concentration (10 μM) against bovine PDE1, human PDE2, PDE3 and PDE5 from human platelets, and PDE6 from bovine retinal rod outer segments.

[4] = system: cAMP in PGE2-stimulated human PBMC; test: PGE2-induced cAMP elevation in human PBMC; assay type: cell-based; conditions: PGE2 10 μM
Excerpt: Prostaglandin E2 (PGE2) binds to prostanoid receptors on monocytes, T cells and other leukocytes and consequently elevates intracellular cAMP levels, resulting in inhibition of cellular responses. The combination of PGE2 and a PDE4 inhibitor synergistically elevates cAMP levels in these cell types, and the elevation of cAMP in PBMC caused by PDE4 inhibitors in the presence of PGE2 is proportional to the inhibitory activity of that PDE4 inhibitor.
Human PBMCs were isolated as described above and plated in 96-well plates at 1×10^6 cells per well in RPMI-1640. The cells were pre-treated with Compound A in a final concentration of 2% DMSO in duplicate at 37° C. in a humidified incubator at 5% CO2 for one hour. The cells were then stimulated with PGE2 (10 μM) (Sigma) for one hour. The cells were lysed with HCl, 0.1N final concentration to inhibit phosphodiesterase activity and the plates were frozen at −20° C. The cAMP produced was measured using cAMP (low pH) Immunoassay kit (R&D Systems).

[5] = system: IL-5 production by human CD4+ T cells; test: IL-5 production by CD4+ T cells; assay type: cell-based; conditions: CD4+ T cell, stimulated with CD3 antibody OKT3 and CD28 antibody CD28.2
Description: CD4^+ T cells were purified from human leukocytes obtained from the Blood Center of New Jersey (East Orange, N.J.) by negative selection (Schafer, P. H., et al., J Immunol, 1999. 162(12): 7110-9). CD4^+ T cells were stimulated with CD3 antibody OKT3 (purified from OKT3 hybridoma supernatant) and CD28 antibody CD28.2 (BD Pharmingen) (Hatzelmann, A. and C. Schudt, J Pharmacol Exp Ther, 2001. 297(1): 267-79). IL-5 was measured by ELISA (R&D Systems).

- IC50 [2]: 240 nM and 0.11 µg/mL
- IC50 ([3]; 1 μM cAMP): 100 nM
- PDE4 IC50 (from U937 cells) ([3]; 1 μM cAMP): 0.05 µg/mL
- IC50 [5]: 520 nM and 0.25 µg/mL
SMILES: CCOc1cc([C@@H](CS(C)(=O)=O)N2Cc3cccc(NC(=O)C4CC4)c3C2=O)ccc1OC [Compound A, cyclopropyl-N-{2-[(1S)-1-(3-ethoxy-4-methoxyphenyl)-2-(methylsulfonyl)ethyl]-3-oxoisoindoline-4-yl}carboxamide]
- clinical severity of arthritis (clinical score) ([1]; FIG. 3): effective in reducing the clinical severity of arthritis
- histological severity of arthritis ([1]; P<0.05, FIG. 4): reduced the histological severity of arthritis
- PDE4 % inhibition ([3]; at 10 μM): 95%
- EC50 [4]: 6.1 µM and 2.9 µg/mL
